The values that follow come from patent publication US11780830B2, “Triazolone derivatives or salts thereof and pharmaceutical compositions comprising the same” (YUHAN CORPORATION, priority 2018, dated 2023).

Where a name gives a salt, the structure may show the parent alone.

What all share (format): biochemical
The target of test [1] is T1, recombinant human MAO-A (monoamine oxidase-A) (Homo sapiens, UniProt P21397).
T1 construct: purchased Sigma-Aldrich
T1 sequence (P21397 1-527): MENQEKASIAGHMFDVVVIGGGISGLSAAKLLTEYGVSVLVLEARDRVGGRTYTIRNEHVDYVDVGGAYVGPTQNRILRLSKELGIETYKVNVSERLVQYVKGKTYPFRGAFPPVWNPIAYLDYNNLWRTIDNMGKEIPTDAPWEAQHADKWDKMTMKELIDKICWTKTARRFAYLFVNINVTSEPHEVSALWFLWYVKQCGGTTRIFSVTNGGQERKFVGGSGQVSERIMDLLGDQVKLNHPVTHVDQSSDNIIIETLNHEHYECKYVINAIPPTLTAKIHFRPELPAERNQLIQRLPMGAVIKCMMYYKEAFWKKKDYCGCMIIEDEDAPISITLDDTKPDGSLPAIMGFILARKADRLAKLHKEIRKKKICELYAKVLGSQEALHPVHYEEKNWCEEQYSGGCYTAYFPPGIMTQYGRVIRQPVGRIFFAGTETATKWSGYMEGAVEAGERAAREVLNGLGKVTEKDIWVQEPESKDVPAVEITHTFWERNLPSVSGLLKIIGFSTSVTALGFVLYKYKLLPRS
Briefly: Activity on recombinant human MAO-A, method similar to the VAP-1 assay. The conditions noted are these: substrate 0.5 mM tyramine; read-out: Inhibitory Activity (IC50, nM) MAO-A. The procedure: (§1) The compounds according to the present technology were evaluated in terms of activity on recombinant human VAP-1 (R&D systems) by measuring the level of hydrogen peroxide in horseradish peroxidase (HRP)-coupled reaction using Amplex Red Hydrogen Peroxide Assay Kit (Molecular Probes, Invitrogen, USA). The experiment was carried out at room temperature using benzylamine as a substrate. In the HRP-coupled reaction, hydrogen peroxide oxidation of 10-acetyl-3,7-dihydroxyphenoxazine (Amplex Red reagent) produces resorufin, which is a highly fluorescent compound. Briefly, the test compound was dissolved in dimethyl sulfoxide (DMSO) at a concentration of 20 mM. The dose-response assessment was made by 1:3 serial dilution in DMSO, thereby creating an 8 point curve. The concentration of the upper part was controlled according to the efficacy of the compounds, followed by dilution with a reaction buffer solution to obtain a final DMSO concentration less than 1%. To each well of a 96 black well plate, human VAP-1 purified in 50 mM sodium phosphate buffer solution (pH7.4) was added. The test compounds dissolved in DMSO were incubated with the human VAP-1 enzymes at 37° C. for 30 minutes. After 30-minute incubation, each well is added with a reaction mixture containing 200 uM Amplex Red reagent prepared from 50 mM sodium phosphate buffer solution (pH 7.4), 1 mM benzylamine, and 1 U/mL HRP. Fluorescence intensity was measured at several time points during 1-2 hours using a microplate reader (Flexstation3, Molecular Devices) under the wavelength condition exciting at 544 nm and reading the emission at 590 nm. The inhibitory effect of the compounds was measured as a decrease (%) in the signal rate as compared to the control group without any inhibitor (only diluted DMSO). Data was fixed to a logistic model with four variables and IC50 value was calculated using GraphPad Prism program.
(§2) In addition, the compounds according to the present technology were evaluated in terms of activity on a recombinant human MAO-A (monoamine oxidase-A, Sigma-Aldrich) and a recombinant human MAO-B (monoamine oxidase-B, Sigma-Aldrich) by using as substrates, 0.5 mM tyramine and 1 mM benzylamine, respectively, with a method similar to the activity evaluation method for recombinant human VAP-1. The compounds according to the present technology were also evaluated in terms of activity on a recombinant human DAO (diamine oxidase, R&D systems) by using as a substrate 1 mM putrescine with a method similar to the activity evaluation method for recombinant human VAP-1.

For test [2], the target named is T2, recombinant human DAO (diamine oxidase) (Homo sapiens, UniProt P19801).
T2 construct: purchased R&D systems
T2 sequence (P19801 20-751): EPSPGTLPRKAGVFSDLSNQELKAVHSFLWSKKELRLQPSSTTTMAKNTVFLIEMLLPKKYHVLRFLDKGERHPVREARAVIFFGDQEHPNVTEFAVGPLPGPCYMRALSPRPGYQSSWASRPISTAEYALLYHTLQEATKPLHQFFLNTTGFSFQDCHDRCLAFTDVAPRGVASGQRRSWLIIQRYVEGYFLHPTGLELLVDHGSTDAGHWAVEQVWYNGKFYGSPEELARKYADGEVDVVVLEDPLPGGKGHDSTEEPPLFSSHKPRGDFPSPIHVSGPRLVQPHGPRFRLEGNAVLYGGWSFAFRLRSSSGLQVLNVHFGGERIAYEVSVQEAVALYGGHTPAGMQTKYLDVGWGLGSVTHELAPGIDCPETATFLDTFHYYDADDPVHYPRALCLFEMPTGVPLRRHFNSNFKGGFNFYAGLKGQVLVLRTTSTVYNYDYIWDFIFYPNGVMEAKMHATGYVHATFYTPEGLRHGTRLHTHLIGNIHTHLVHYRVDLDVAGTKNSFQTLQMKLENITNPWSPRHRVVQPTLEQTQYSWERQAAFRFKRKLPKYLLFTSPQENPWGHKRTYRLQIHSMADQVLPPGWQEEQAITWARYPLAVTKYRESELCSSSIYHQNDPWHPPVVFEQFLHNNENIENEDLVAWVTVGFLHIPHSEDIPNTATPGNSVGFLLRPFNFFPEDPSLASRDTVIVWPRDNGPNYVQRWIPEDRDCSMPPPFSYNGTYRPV
Put plainly: Activity on recombinant human DAO, method similar to the VAP-1 assay. The conditions noted are these: substrate 1 mM putrescine; read-out: Inhibitory Activity (IC50, nM) DAO. The procedure:
as §1, §2

The target of test [3] is T3, recombinant human MAO-B (monoamine oxidase-B) (Homo sapiens, UniProt P27338).
T3 construct: purchased Sigma-Aldrich
T3 sequence (P27338 1-520): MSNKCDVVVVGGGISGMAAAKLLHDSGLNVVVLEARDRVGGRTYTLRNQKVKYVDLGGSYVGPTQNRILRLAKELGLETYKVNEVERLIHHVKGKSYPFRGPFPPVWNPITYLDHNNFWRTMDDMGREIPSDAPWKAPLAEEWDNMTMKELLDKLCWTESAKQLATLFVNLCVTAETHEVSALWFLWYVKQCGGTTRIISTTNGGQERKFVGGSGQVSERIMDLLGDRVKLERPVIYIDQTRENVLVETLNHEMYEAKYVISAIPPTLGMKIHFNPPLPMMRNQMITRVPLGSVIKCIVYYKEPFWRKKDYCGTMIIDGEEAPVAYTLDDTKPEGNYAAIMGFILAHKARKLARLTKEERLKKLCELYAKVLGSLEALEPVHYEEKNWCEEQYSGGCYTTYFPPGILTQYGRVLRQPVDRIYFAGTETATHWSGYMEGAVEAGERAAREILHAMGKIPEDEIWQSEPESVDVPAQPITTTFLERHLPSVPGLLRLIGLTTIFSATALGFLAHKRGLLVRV
Briefly: Activity on recombinant human MAO-B, method similar to the VAP-1 assay. The conditions noted are these: substrate 1 mM benzylamine; read-out: Inhibitory Activity (IC50, nM) MAO-B. On the procedure: as §1, §2

The target in a further test is T4, recombinant human VAP-1 (Homo sapiens, UniProt Q16853).
T4 construct: purchased R&D systems
T4 sequence (Q16853 1-763): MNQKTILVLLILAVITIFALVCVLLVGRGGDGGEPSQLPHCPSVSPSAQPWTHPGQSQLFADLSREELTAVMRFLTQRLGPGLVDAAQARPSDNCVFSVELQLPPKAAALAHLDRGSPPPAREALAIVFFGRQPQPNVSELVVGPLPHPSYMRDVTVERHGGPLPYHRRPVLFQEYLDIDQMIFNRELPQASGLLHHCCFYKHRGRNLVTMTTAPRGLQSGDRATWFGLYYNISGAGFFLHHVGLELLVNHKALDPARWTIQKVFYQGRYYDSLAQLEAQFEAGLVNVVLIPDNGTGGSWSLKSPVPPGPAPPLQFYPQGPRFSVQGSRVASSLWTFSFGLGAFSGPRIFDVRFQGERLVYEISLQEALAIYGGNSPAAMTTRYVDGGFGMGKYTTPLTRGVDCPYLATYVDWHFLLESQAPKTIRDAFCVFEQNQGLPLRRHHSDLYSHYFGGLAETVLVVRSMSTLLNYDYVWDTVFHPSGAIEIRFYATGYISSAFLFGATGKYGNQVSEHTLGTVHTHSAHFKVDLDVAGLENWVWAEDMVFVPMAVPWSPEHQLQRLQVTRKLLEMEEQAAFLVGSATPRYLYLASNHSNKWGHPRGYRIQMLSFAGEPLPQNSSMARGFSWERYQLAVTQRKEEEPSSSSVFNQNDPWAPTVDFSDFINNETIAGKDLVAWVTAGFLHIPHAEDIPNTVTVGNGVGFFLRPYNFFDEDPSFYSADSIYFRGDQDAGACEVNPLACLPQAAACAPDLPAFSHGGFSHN
Put plainly: Activity on recombinant human VAP-1, HRP-coupled Amplex Red hydrogen peroxide assay. The note with it: substrate 1 mM benzylamine; compound incubated with enzyme at 37° C. for 30 minutes; pH 7.4; read-out: Inhibitory Activity (IC50, nM) human VAP-1. The procedure:
as §1

For the compound `NC/C(=C\F)Cn1ncn(Cc2ccc(C#Cc3ccc4c(c3)CCC(=O)N4)s2)c1=O` [Example 133, 6-[2-[5-[[1-[(E)-2-(aminomethyl)-3-fluoro-allyl]-5-oxo-1,2,4-triazol-4-yl]methyl]-2-thienyl]ethynyl]-3,4-dihydro-1H-quinolin-2-one hydrochloride], the IC50 in test [1] was found to be 49000 nM; in test [2], 530 nM; in test [3], 180 nM; on recombinant human VAP-1 it was 0.2 nM.

As for `NC/C(=C\F)Cn1ncn(Cc2ccc(-c3ccc4c(c3)CCCO4)s2)c1=O` [Example 109, 2-[(2E)-2-(aminomethyl)-3-fluoroprop-2-en-1-yl]-4-[5-(3,4-dihydro-2H-chromen-6-yl)thiophen-2-yl]methyl-2,4-dihydro-3H-1,2,4-triazol-3-one hydrochloride], the IC50 was 25300 nM in test [1], 2540 nM in test [2], 104 nM in test [3] and 2.7 nM at recombinant human VAP-1.

On to `Cn1c(-c2ccc(Cn3cnn(C/C(=C/F)CN)c3=O)s2)cnc1Cl` [Example 154, 2-[(2E)-2-(aminomethyl)-3-fluoroprop-2-en-1-yl]-4-{[5-(2-chloro-1-methyl-1H-imidazol-5-yl)thiophen-2-yl]methyl}-2,4-dihydro-3H-1,2,4-triazol-3-one], for which the concentration for half-maximal inhibition (IC50) in test [1] was more than 100000 nM; in test [2], 690 nM; in test [3] it was 1400 nM; on recombinant human VAP-1, 4.4 nM.

With `NC/C(=C\F)Cn1ncn(Cc2ccc(-c3ccc4c(c3)COC4)s2)c1=O` [Example 193, 2-[(2E)-2-(aminomethyl)-3-fluoroprop-2-en-1-yl]-4-{[5-(1,3-dihydro-2-benzofuran-5-yl)thiophen-2-yl]methyl}-2,4-dihydro-3H-1,2,4-triazol-3-one], the IC50 is more than 100000 nM in test [1], 2000 nM in test [2], 85 nM in test [3] and 1 nM on recombinant human VAP-1.

With `NC/C(=C\F)Cn1ncn(Cc2ccc(-c3ccc(F)c(C(F)(F)F)c3)s2)c1=O` [Example 15, 2-[(2E)-2-(aminomethyl)-3-fluoroprop-2-en-1-yl]-4-(5-[4-fluoro-3-(trifluoromethyl)phenyl]thiophen-2-ylmethyl)-2,4-dihydro-3H-1,2,4-triazol-3-one hydrochloride], the IC50 was more than 100000 nM in test [1], 670 nM in test [2], 5 nM in test [3] and 0.9 nM at recombinant human VAP-1.

Turning to `CN(C)c1ccc(-c2ccc(Cn3cnn(C/C(=C/F)CN)c3=O)s2)cc1` [Example 5, 2-[(2E)-2-(aminomethyl)-3-fluoroprop-2-en-1-yl]-4-(5-[4-(dimethylamino)phenyl]thiophen-2-ylmethyl)-2,4-dihydro-3H-1,2,4-triazol-3-one hydrochloride], the concentration for half-maximal inhibition (IC50) in test [1] is more than 100000 nM; in test [3] it was 680 nM; on recombinant human VAP-1, 3.3 nM.

On to `CC(C)(C)NS(=O)(=O)c1cncc(-c2ccc(Cn3cnn(C/C(=C/F)CN)c3=O)s2)c1` [Example 186, 5-[5-({1-[(2E)-2-(aminomethyl)-3-fluoroprop-2-en-1-yl]-5-oxo-1,5-dihydro-4H-1,2,4-triazol-4-yl}methyl)thiophen-2-yl]-N-tert-butylpyridin-3-sulfonamide], for which the results for the IC50 (in test [2]; in test [3]; at recombinant human VAP-1) were 140 nM, 20000 nM and 2.4 nM, respectively.

As to `NC/C(=C\F)Cn1ncn(Cc2ccc(-c3ccc(S(=O)(=O)N4CCOCC4)cc3)s2)c1=O` [Example 198, 2-[(2E)-2-(aminomethyl)-3-fluoroprop-2-en-1-yl]-4-({5-[4-(morpholin-4-ylsulfonyl)phenyl]thiophen-2-yl}methyl)-2,4-dihydro-3H-1,2,4-triazol-3-one], the IC50 was found to be 220 nM in test [2], 6200 nM in test [3] and 2.2 nM at recombinant human VAP-1.

As to `NC/C(=C\F)Cn1ncn(Cc2ccc(/C=C/c3cnc4[nH]c(=O)oc4c3)s2)c1=O` [Example 122, 6-[(E)-2-[5-[[1-[(E)-2-(aminomethyl)-3-fluoro-allyl]-5-oxo-1,2,4-triazol-4-yl]methyl]-2-thienyl]vinyl]-3H-oxazolo[4,5-b]pyridin-2-one hydrochloride], the IC50 in test [1] is more than 100000 nM; in test [2], 680 nM; at recombinant human VAP-1, 1 nM.

By IC50 is commonly meant the point on the concentration scale where inhibition reaches its midpoint.
